In PubChem BioAssay (NCI):
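Cells were grown in 96-well plates and exposed to each compound for 48 hours at five concentrations; endpoints were interpolated linearly between bracketing concentrations, or set to the highest concentration if not reached. TGI: total growth inhibition.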

How the values were obtained:
Assay in all cases: growth of human tumour cells (NCI), 48 h
[1] = system: SK-OV-3 ovarian
[2] = system: SN12C renal
[3] = system: LOX IMVI melanoma
[4] = system: HT29 colon
[5] = system: DU-145 prostate
[6] = system: ACHN renal
[7] = system: U251 CNS
[8] = system: A549 NSCLC
[9] = system: SW-620 colon
[10] = system: OVCAR-3 ovarian
[11] = system: SNB-19 CNS
[12] = system: MCF7 breast
[13] = system: UACC-62 melanoma
[14] = system: KM12 colon
[15] = system: NCI-H23 lung
[16] = system: MDA-MB-435
[17] = system: 786-0 renal
[18] = system: BT-549 breast
[19] = system: M14 melanoma
[20] = system: MDA-MB-231 breast
[21] = system: PC-3 prostate
[22] = system: NCI-H460 lung
[23] = system: HCT-15 colon
[24] = system: IGROV1 ovarian
[25] = system: SK-MEL-2 melanoma
[26] = system: UACC-257 melanoma
[27] = system: NCI-H522 lung
[28] = system: EKVX NSCLC
[29] = system: T-47D breast
[30] = system: K-562 leukemia
[31] = system: HS 578T breast
[32] = system: COLO 205 colon
[33] = system: MDA-N
[34] = system: TK-10 renal
[35] = system: A498 renal
[36] = system: RXF 393 renal
[37] = system: CCRF-CEM leukemia
[38] = system: SK-MEL-5 melanoma
[39] = system: MOLT-4 leukemia
[40] = system: HOP-92 NSCLC
[41] = system: SNB-75 CNS
[42] = system: HOP-62 NSCLC
[43] = system: HCC-2998 colon
[44] = system: HCT-116 colon
[45] = system: SF-268 CNS
[46] = system: MALME-3M melanoma
[47] = system: CAKI-1 renal
[48] = system: SK-MEL-28 melanoma
[49] = system: SF-295 CNS
[50] = system: NCI/ADR-RES ovarian
[51] = system: OVCAR-4 ovarian
[52] = system: UO-31 renal
[53] = system: HL-60(TB) leukemia
[54] = system: OVCAR-5 ovarian
[55] = system: NCI-H226 lung
[56] = system: OVCAR-8 ovarian

For `COC(=O)c1ccccc1C1CN=NC12Cc1c(ccc(C)c1C)C2=O` (stereo unspecified), the TGI [1] was greater than 100 µM, the TGI [2] was greater than 100 µM and the TGI [3] was greater than 100 µM. The TGI [4] was greater than 100 µM, the TGI [5] was greater than 100 µM and the TGI [6] was greater than 100 µM. The TGI [7] was greater than 100 µM, the TGI [8] was greater than 100 µM and the TGI [9] was greater than 100 µM. The TGI [10] was greater than 100 µM, the TGI [11] was greater than 100 µM and the TGI [12] was greater than 100 µM. The TGI [13] was greater than 100 µM, the TGI [14] was greater than 100 µM and the TGI [15] was greater than 100 µM. The TGI [16] was greater than 100 µM, the TGI [17] was greater than 100 µM and the TGI [18] was greater than 100 µM. It also gave a TGI [19] greater than 100 µM, a TGI [20] greater than 100 µM and a TGI [21] greater than 100 µM. For the same compound, the TGI [22] was greater than 100 µM, the TGI [23] was greater than 100 µM and the TGI [24] was greater than 100 µM. The TGI [25] was greater than 100 µM, the TGI [26] was greater than 100 µM and the TGI [27] was greater than 100 µM. The TGI [28] was greater than 100 µM, the TGI [29] was greater than 100 µM and the TGI [30] was greater than 100 µM. It also gave a TGI [31] greater than 100 µM, a TGI [32] greater than 100 µM and a TGI [33] greater than 100 µM. For the same compound, the TGI [34] was greater than 100 µM, the TGI [35] was greater than 100 µM and the TGI [36] was greater than 100 µM. For the same compound, the TGI [37] was greater than 100 µM, the TGI [38] was greater than 100 µM and the TGI [39] was greater than 100 µM. It also gave a TGI [40] of 84.2 µM, a TGI [41] of 89.1 µM and a TGI [42] greater than 100 µM. It also gave a TGI [43] greater than 100 µM, a TGI [44] greater than 100 µM and a TGI [45] greater than 100 µM. For the same compound, the TGI [46] was greater than 100 µM, the TGI [47] was greater than 100 µM and the TGI [48] was greater than 100 µM. For the same compound, the TGI [49] was greater than 100 µM, the TGI [50] was greater than 100 µM and the TGI [51] was greater than 100 µM. It also gave a TGI [52] greater than 100 µM, a TGI [53] greater than 100 µM and a TGI [54] greater than 100 µM. It also gave a TGI [55] greater than 100 µM and a TGI [56] greater than 100 µM.
